pIC50: −log10 of the molar value. Residues, ends and D or L forms follow the SMILES beside them. *: point of attachment. Cbz = O=C(OCc1ccccc1)*; CH2Cl = ClC*; CH2F = FC*
These compounds were tested against T1, T. cruzi oligopeptidase B (rPEP, recombinant 120-kD peptidase) (Trypanosoma cruzi, UniProt Q94795) (assay: fluorimetric inhibition of Z-Phe-Arg-AMC hydrolysis).
T1 sequence (Q94795 1-714): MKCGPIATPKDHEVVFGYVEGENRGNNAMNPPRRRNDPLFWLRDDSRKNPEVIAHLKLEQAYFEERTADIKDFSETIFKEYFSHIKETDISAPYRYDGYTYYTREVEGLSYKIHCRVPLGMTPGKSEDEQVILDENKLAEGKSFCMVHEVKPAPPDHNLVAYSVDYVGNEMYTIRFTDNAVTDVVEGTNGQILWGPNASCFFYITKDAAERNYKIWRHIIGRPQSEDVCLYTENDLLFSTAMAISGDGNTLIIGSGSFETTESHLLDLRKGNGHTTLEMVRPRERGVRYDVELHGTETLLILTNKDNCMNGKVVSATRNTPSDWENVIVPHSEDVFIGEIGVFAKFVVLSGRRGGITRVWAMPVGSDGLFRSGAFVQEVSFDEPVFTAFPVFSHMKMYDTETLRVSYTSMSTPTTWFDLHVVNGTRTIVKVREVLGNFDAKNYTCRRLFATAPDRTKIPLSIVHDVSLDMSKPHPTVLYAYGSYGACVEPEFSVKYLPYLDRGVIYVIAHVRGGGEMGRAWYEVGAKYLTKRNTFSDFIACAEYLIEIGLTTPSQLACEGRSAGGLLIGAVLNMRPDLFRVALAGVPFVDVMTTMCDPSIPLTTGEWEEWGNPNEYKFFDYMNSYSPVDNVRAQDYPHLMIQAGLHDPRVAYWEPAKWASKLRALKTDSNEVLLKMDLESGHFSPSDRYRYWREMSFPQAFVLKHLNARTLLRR
Type: biochemical
In the case of `N=C(N)NCCC[C@H](NC(=O)[C@H](Cc1ccccc1)NC(=O)OCc1ccccc1)C(=O)CF` [Z-Phe-Arg-fluoromethylketone] (Cbz-Phe-Arg-CH2F), the pIC50 was 6.60. `CC(=O)N[C@@H](CCCNC(=N)N)C(=O)N[C@@H](CCCNC(=N)N)C(=O)CCl` [acetylArg-Arg-chloromethylketone] (Ac-Arg-Arg-CH2Cl) gave a pIC50 of 6.70. `O=C(O)c1cc[c]([Hg][Cl])cc1` [p-chloromercuribenzoic acid] showed a pIC50 of 6.48. `Cc1ccc(S(=O)(=O)N[C@@H](CCCCN)C(=O)CCl)cc1` [N-α-p-tosyl-l-lysine-chloromethyl ketone] showed a pIC50 of 6.22.

From publication PMC2134300 (The Journal of Cell Biology, 1997)
